From a melting point compilation (Tetko et al.; mined from patent text by program, amines drawn as free bases though some values may be those of a salt)

Structure (SMILES) | melting point
O=c1c2c(Cl)cc(Cl)cc2n(Cc2ccccc2)c(=O)n1Cc1cccc(I)c1 | 155 to 157 °C
COc1ccc(NC(=O)c2ccc(F)c(F)c2)cc1NS(=O)(=O)c1ccc([N+](=O)[O-])cc1 | 231 to 249 °C
CCC1(c2ccccc2)OC(c2ccc(-c3ccc(Cl)cc3)cc2)OC1=O (centres undefined) | 80 to 83 °C
O=c1ccn(-c2cccc(C(F)(F)F)c2)nc1-c1ccnn1-c1cccc(F)c1 | 104 to 105 °C
CCOc1cc2c(cc1O[Si](C)(C)C(C)(C)C)C(=O)CC1C2CCC2(C)C(O[Si](C)(C)C(C)(C)C)CCC12 (centres undefined) | 150 to 151 °C
CCCCCCCCCCOCCCCCCCSCCCO | 28 to 32 °C
CCCCCCc1cc2c(s1)-n1c(C)nnc1CN=C2c1ccccc1Cl | 111 to 113 °C
CCCc1nnc(C(Cc2ccc(-c3cccc(CN(C)C(=O)c4ccccc4)c3)cc2)Nc2ccccc2C(=O)c2ccccc2)o1 (centres undefined) | 65 °C
NS(=O)(=O)c1ccc(-n2nc(CCNC(=O)Nc3cccc(C(F)(F)F)c3)cc2-c2ccccc2)cc1 | 122 to 125 °C
C1=Cc2ccccc2OC1 | 48 to 51 °C
OCc1nccn1C(c1ccccc1)(c1ccccc1)c1ccccc1 | 243 to 244 °C
O=C(Nc1cccnc1)N1CCc2cc(Cl)c(Cl)cc21 | 236 to 238 °C
CNC(=O)Oc1ccc2c(N(C)CCN3CCOCC3)noc2c1 | 94 to 95 °C
COC1CC(NC(=O)C(F)(F)F)C(OCc2ccccc2)C(C)O1 (centres undefined) | 159 to 160 °C
O=C1CCc2c(Br)cc(F)cc21 | 129 to 131 °C
O=S(=O)(C(=CNc1ccccc1C(F)(F)F)S(=O)(=O)c1ccc(Cl)cc1)c1ccc(Cl)cc1 | 169 to 171 °C
N#CCNC(=O)C1(NC(=O)c2ccc(N3CCN(C(=O)OCC4c5ccccc5-c5ccccc54)CC3)cc2)CCCCC1 | 192 to 194 °C
Cn1c(=O)c(-c2nnn(Cc3cccc(OCc4ccc5ccccc5n4)c3)n2)cc2cc(OCCCN3CCN(Cc4ccc5ccccc5n4)CC3)ccc21 | 174 to 178 °C
Cn1nnnc1CN1C2CCC1CC(Oc1ccc(Cl)c(Cl)c1)C2 (centres undefined) | 119 to 120 °C
COc1ccc(C)cc1NC(=O)Nc1ccc(C2=CCN(C(=O)Nc3ccc(OCCO)cc3C(F)(F)F)CC2)cc1 | 150 to 153 °C
O=C(Nc1ccc(S(=O)(=O)c2ccccn2)cc1)C(O)(C(F)(F)F)C(F)(F)F | 199 to 200 °C
COc1ccc(-c2coc3cc(OC(C)C)ccc3c2=O)cc1 | 245 to 246 °C
CC(O)(c1ccc(Oc2ccccc2)cc1)C1SCSCS1 (centres undefined) | 70 to 71 °C

Structure (SMILES) | melting point
CCCc1c(OCCCSCCBr)ccc(C(C)=O)c1O | 74 to 75 °C
Cc1ccc(OC2=C(Oc3ccc(C)c(C)c3)C(F)(F)C(F)(F)C2(F)F)cc1C | 65 to 67 °C
CN1C2CCC1C1CN(C(=O)N3c4ccccc4C(=O)Nc4cccnc43)CC12 (centres undefined) | 218 to 220 °C
Cc1cc(C(N)=O)ccc1N=C1SC[C@H](CC(C)C)N1CC(C)C | 130 to 131 °C
Cc1cc2c(cc1C=O)OCO2 | 84 to 86 °C
Brc1nc(-c2cccnc2)[nH]c1Br | 226 to 227 °C
CCNC1C=CC=C(Oc2ccc(F)cc2)C1(Cl)[N+](=O)[O-] (centres undefined) | 69 to 70 °C
Cc1oc(-c2ccccc2)nc1Cc1cc2cc(C#N)ccc2o1 | 139 to 140 °C
CCCCCCCCCCCCCCCCOC[C@H]1CCO[C@H](c2ccccc2)O1 | 51 to 54 °C
CON=Cc1ncn2c1[C@@H]1CCCN1C(=O)c1c(Cl)cccc1-2 | 194 to 195 °C
CC(=NO)c1ccc(Nc2c3ccccc3nc3occc23)cc1 | 264 to 265 °C
CC1(C)N=C(c2ccccc2Cl)c2cc(N)ccc2N(CCO)C1=O | 175 to 176 °C
Cc1cc2c(cc1C)C(=CC#N)OC2=O | 165 to 181 °C
O=S(=O)(C(=Cc1ccc(Cl)cc1)SC(=Cc1ccc(Cl)cc1)S(=O)(=O)c1ccccc1)c1ccccc1 | 251 °C
CC(C)N1CCC2(CC1)CSC1=C(O2)c2ccccc2C(=O)C1=O | 197 to 198 °C
C=CCOc1ccc(OCc2ccccc2)cc1 | 56 to 57 °C
COc1ccc(C(=O)Nc2ccc3ccc(Oc4ccccc4)nc3n2)cn1 | 115 to 120 °C
CC(C(=O)NC(=O)OC1CCCCC1)(c1ccccc1)c1ccccc1 | 126 °C
O=C(C(Cl)Cl)N1CCSC12CCCCC2 | 149 to 151 °C
CC(NC(=O)c1cc(Cl)cc(Br)c1NC(=O)c1cc(Br)nn1-c1ncccc1Cl)C1CC1 (centres undefined) | 244 to 247 °C
CC(=O)OCC(C)C1CCC2C3CC=C4CC(OC(C)=O)CCC4(C)C3CCC12C (centres undefined) | 125 to 127 °C
CC(C)NCCCS(=O)(=O)O | 240 to 243 °C

Further lines, results first:

melting point | Structure (SMILES)
128 to 130 °C | Cc1ccc(S(=O)(=O)NCCc2cccc(OCCN)c2)cc1
179 to 181 °C | O=C(O)COc1c(Br)cc2oc(C(=O)c3ccccc3)cc2c1Br
58 to 60 °C | CC(C)(COc1ccc(Cl)cc1)C(=O)C(CC1CCCCC1)n1cncn1 (centres undefined)
189 to 190 °C | NC(=O)N(O)CCNC(=O)c1ccc2ccccc2n1
> 300 °C | N=C(N)Nc1ccc(CCC(=O)O)cc1
60 to 61 °C | COC(=O)c1cc(-c2ccc(C(F)(F)F)cc2)oc1COC(C)=O
131 to 134 °C | COCCOc1ccc2cc3ccccc3cc2c1
176 to 178 °C | COc1ccc(-c2nc(C)nn2-c2ccccc2S(N)(=O)=O)cc1OC
145 °C | CC(C)(C)OC(=O)N[C@@H](Cc1ccccc1)c1nc2c(C(F)(F)F)cccc2c(=O)o1
282 to 284 °C | Oc1ccc2nc(-c3ccc(O)c(O)c3)oc2c1
133 to 135 °C | O=C(O)C(=O)c1ccc(OCCCCOc2ccc3ccccc3c2)cc1
209 to 213 °C | COc1ccccc1N1CCN(CCn2c(=O)[nH]c3scc(C)c3c2=O)CC1
223 to 225 °C | CCc1nc2c(N)nc3cc(OCCN(C(N)=O)C(C)C)ccc3c2n1CC1CCOCC1
154 to 157 °C | Cc1oc(-c2ccccc2)nc1C(N)=O
173 °C | CO/C=C(/C(=O)OC)c1c(O)c(C)nn1C
136 to 137 °C | CCC1=C(c2ccc(F)c(F)c2)C(=NO)CC1
148 to 150 °C | CCOC(=O)Cn1c(CC)nc2c(O)cccc21
128 to 132 °C | CCC(=O)OC1C(=O)N(CCNC)c2ccc(C)cc2SC1c1ccc(C)cc1 (centres undefined)
234 to 235 °C | NCCc1ccc(C(=O)CCC(=O)O)cc1
101 to 104 °C | Cc1c(Cc2cccnc2)ccc2ccc(Br)cc12

melting point | Structure (SMILES)
62 to 62.5 °C | C=CCCCn1ncc2c(N)c(C(=O)OCC=C)c(C)nc21
75 to 77 °C | CC(C)(C)OC(=O)NCc1cc(N)ccc1Cl
157 to 161 °C | CC(=O)Nc1cccc(C(=O)NCc2ccc(-n3c(-c4cccnc4N)nc4ccc(C)nc43)cc2)c1
173 to 175 °C | CCOc1c(O)nc(-c2ccc(Cl)c(OC)c2F)nc1C(=O)OC
108 to 109 °C | Cc1ccc2nc(C(O)[C@H](C)NC(=O)OCc3ccccc3)oc2c1 (some centres undefined)
138 °C | Cc1[nH]c2ccc(OS(=O)(=O)c3c(F)cccc3F)cc2c1C1CCN(C)CC1
58 to 59 °C | COC(=O)CCc1cnoc1-c1ccc(Br)cc1
130 to 133 °C | Cc1ccc(C(=O)COC(=O)NC(C)C)cc1
146 to 147 °C | Cc1nc(-c2cccc(Cl)c2)n(-c2ccc(S(N)(=O)=O)cc2)n1
190 to 191 °C | CCCn1c(COCC)nc2c(N)nc3ccc(OCc4cccnc4)cc3c21
> 300 °C | O=C1CN2Cc3cc(C(=O)c4ccccc4)ccc3N=C2N1
90 to 92 °C | CCOC(=O)[C@@H](NC(=O)c1cc(-c2ncc(C(F)(F)F)cc2Cl)ccc1Cl)C(C)C
123 to 129 °C | O=C1OC(CCCCN2CCN(c3ccccc3O)CC2)CN1c1ccccc1 (centres undefined)
119 to 121 °C | CNC(=O)c1ccccc1-c1cc(-c2ccccc2)no1
158 to 160 °C | CO/C=C(/C(=O)OC)c1ccccc1Oc1cc(N)ncn1
248 to 254 °C | CCOC(=O)c1ncn2c3cccc(Cl)c3c(=O)n(C)c12
87.5 to 89 °C | CC(C)(C)c1cc(SCCc2nnco2)cc(C(C)(C)C)c1O
88 to 89 °C | CCCCc1nc(C(=O)C(C)C)c(C#N)[nH]1
136 to 143 °C | COc1ccc(-c2cc(=Nc3c(C)cc(C)cc3C)n(C)c(NNC=O)n2)cc1OC
102 to 104 °C | CCOC(=O)c1[nH]c2c(c1OCC1CO1)CCCC2 (centres undefined)

melting point | Structure (SMILES)
152 to 154 °C | Cc1ccnc(Cl)c1C(=O)O
40 °C | C[C@@H](Cn1ncc2ccc(O)c(Br)c21)NC(=O)OCc1ccccc1
91 to 91.5 °C | O=[N+]([O-])c1cccc(CO)c1I
146 to 148 °C | CC(C)n1nnc(-c2cnc3ccccn3c2=O)n1
140 °C | O=C(Cc1cccc2ccccc12)Nc1cc(C2CC(NC(=O)C3CC3c3ccccc3)C2)[nH]n1 (centres undefined)
54 to 56 °C | Cc1onc(-c2ccccc2)c1-c1ccc(S(C)(=O)=O)cc1
274 to 275 °C | Cc1nc2sccn2c1C1=NNC(=O)CO1
167 to 169 °C | CCOC(=O)C(=O)Nc1cc(=O)c2ccccc2o1
175 to 179 °C | Cc1noc(C)c1-c1ccncc1OC1SCC(O)C(O)C1O (centres undefined)
183 to 185 °C | CCc1nnc2ccc(-c3cccc(C(F)(F)F)c3)nn12
263 to 264 °C | O=C(O)CCc1ccnc(-c2nc(=O)c3ccc(Cl)cc3s2)c1
95 to 97 °C | CCC1(CCCCCl)C(=O)Nc2cc(F)ccc21 (centres undefined)
16 to 18 °C | CCOC(=O)c1cccc(OCCCCCCCc2cc(C)no2)c1
100 to 101 °C | COC(=O)C(C)(C)S(=O)(=O)N1CC=C(c2ccc(Br)c(C)c2)CC1
210 °C | CCOC(=O)C1=C(C)Nc2nc(N3CCOCC3)nc(N3CCOCC3)c2C1c1cccc(C#N)c1 (centres undefined)
84 to 86 °C | CCOC(=O)C(=CNc1ccnn1Cc1ccco1)C(=O)OCC
220 to 222 °C | NC(=O)C1CCN(c2c(Br)cncc2-c2ccccc2)CC1
106 to 108 °C | CC(=O)NC1Cc2ccc(C(=O)CCCCCl)cc2C1 (centres undefined)
146 to 149 °C | Nc1ccc2sc(Cl)nc2c1
